Laboratory results reported in article PMC5412686 (Biopharmaceutics & Drug Disposition, 2017).
In brackets after ≈: the same amount, converted by molar mass. Where two headings read alike, the source gives them in different places.

Columns and labels:
[1] = ref Supplemental Table S1, cited from earlier work; for HBD: number of hydrogen bond donors; for log D: octanol/water at pH 7.4; for PSA: polar surface area
[2] = Intrinsic metabolic clearance determined in human liver microsomes; type: in vitro ADME; conditions: pH 7.4
Caco‐2 cells (TC7 clone) = conditions: Equation 11 from measured P‐Caco2
[3] = human, Caco-2, pH 7.4, with cyclosporine A 10 μM
[4] = Humans, cited from earlier work; for Urinary excretion (f e): excreted unchanged in urine, ref Supplemental Table S1; for CL: i.v.; for CL / F / Vss: ref Supplemental Table S2; for F: oral bioavailability
[5] = Rats, blood/plasma ratio; ref Supplemental Table S1; cited from earlier work
[6] = cited from earlier work; for F: po
[7] = Humans, blood/plasma ratio; ref Supplemental Table S1; cited from earlier work
[8] = cited from earlier work
[9] = Solubility in fasted state simulated intestinal fluid; type: physicochemical; conditions: FaSSIF, 37 °C, pH 6.5, fassif, thermodynamic from solid
[10] = Rats, fraction unbound; ref Supplemental Table S1; cited from earlier work
[11] = Rats, i.v., ref Supplemental Table S2
[12] = no medium marked (buffer pH 7.4), ref Supplemental Table S1
[13] = FaHIF, fasted human intestinal fluid

SMILES | HBD [1] | log D [1] | PSA [1] | microsomal CLint at 1 μM [2] | Calculated P eff from P‐Caco2 (Caco‐2 cells (TC7 clone)) | Papp at 2 h, 1 μM [3] | Urinary excretion (f e) [4] | CL [4] | F [4] | Vss [4] | CL [6, 11] | F ([6]; rat, in vivo) | Solubility (Biorelevant media or Buffer, pH 7.4) [8, 12] | other results
C=CCc1ccccc1OCC(O)CNC(C)C (stereo not drawn) [Alprenolol] | 2 | 1.34 | 46.2 | 128 µL/min/mg | 3.9 10^−4 cm/s | 31.5 ×10⁻⁶ cm/s | 0.5 % of dose | 65.90 L/h | 0.06 | 2.99 L/kg | 79 mL/min/kg | 0.04 | 0.55 mg/ml | R b [5]: 1.71; R b [7]: 0.76
COc1ccc([C@@H]2Sc3ccccc3N(CCN(C)C)C(=O)[C@@H]2OC(C)=O)cc1 [Diltiazem] | 0 | – | 56.5 | 35 µL/min/mg | – | – | – | 48.3 L/h | – | 5.2 L/kg | 42 mL/min/kg | 0.06 | 0.47 mg/ml | Base pKa [1]: 8.1
O=c1[nH]c2ccccc2n1CCCN1CCC(n2c(=O)[nH]c3cc(Cl)ccc32)CC1 [Domperidone] | 2 | 3.33 | 66.8 | 166 µL/min/mg | 4.3 10^−4 cm/s | 38.6 ×10⁻⁶ cm/s | < 1 % of dose | 42.06 L/h | – | – | 39.2 mL/min/kg | – | – | solubility at 24 h [9]: 135 µg/mL (≈ 317 µM)
CC[C@H]1OC(=O)[C@H](C)[C@@H](O[C@H]2C[C@@](C)(OC)[C@@H](O)[C@H](C)O2)[C@H](C)[C@@H](O[C@@H]2O[C@H](C)C[C@H](N(C)C)[C@H]2O)[C@](C)(O)C[C@@H](C)C(=O)[C@H](C)[C@@H](O)[C@]1(C)O [Erythromycin] | 5 | 1.16 | 203.3 | – | – | – | – | 18.73 L/h | 0.21 | 0.60 L/kg | 105 mL/min/kg | 0.14 | 2 mg/ml | –
CCC(C)n1ncn(-c2ccc(N3CCN(c4ccc(OCC5COC(Cn6cncn6)(c6ccc(Cl)cc6Cl)O5)cc4)CC3)cc2)c1=O (stereo not drawn) [Itraconazole] | 0 | 3.27 | 84.7 | – | – | – | < 1 % of dose | 22.86 L/h | 0.76 | – | 9.1 mL/min/kg | 0.35 | – | f up [10]: 0.009; Solubility (Biorelevant media or Buffer, pH 7.4) [8, 13]: 0.006 (FaHIF) mg/ml
CCN(CC)CC(=O)Nc1c(C)cccc1C [Lidocaine] | – | – | – | – | – | – | – | – | – | – | – | – | – | R b [5]: 1.27; R b [7]: 0.87
COCCc1ccc(OCC(O)CNC(C)C)cc1 (stereo not drawn) [Metoprolol] | 2 | 0.16 | 55.0 | 19 µL/min/mg | – | – | – | 65.34 L/h | – | 5.18 L/kg | 65.2 mL/min/kg | – | – | Solubility (Biorelevant media or Buffer, pH 7.4) [8, 13]: 299.8 (FaHIF) mg/ml
Cc1ncc2n1-c1ccc(Cl)cc1C(c1ccccc1F)=NC2 [Midazolam] | 0 | 1.53 | 20.1 | 392 µL/min/mg | – | – | < 1 % of dose | 19.38 L/h | 0.7 | 0.74 L/kg | – | 0.25 | 0.024 mg/ml | Base pKa [1]: 5.6; R b [5]: 0.81; CL ([6]; rat, in vivo, iv): 46 mL/min/kg; R b [7]: 0.75
CN1CCN2c3ncccc3Cc3ccccc3C2C1 (stereo not drawn) [Mirtazapine] | 0 | 0.28 | 12.3 | 11 µL/min/mg | 4.0 10^−4 cm/s | 33.2 ×10⁻⁶ cm/s | – | 38.3 L/h | 0.4 | 3.52 L/kg | 29.4 mL/min/kg | 0.07 | 0.002 mg/ml | –
Oc1ccc2c3c1O[C@H]1[C@@H](O)CC[C@@]4(O)[C@@H](C2)N(CC2CCC2)CC[C@]314 [Nalbuphine] | 3 | 0.81 | 78.3 | < 10 µL/min/mg | 3.8 10^−4 cm/s | 29.8 ×10⁻⁶ cm/s | – | 90 L/h | – | 4.63 L/kg | 63 mL/min/kg | – | 35.5 mg/ml | Base pKa [1]: 10.0
COC(=O)C1=C(C)NC(C)=C(C(=O)OC)C1c1ccccc1[N+](=O)[O-] [Nifedipine] | – | – | – | – | – | – | 0 % of dose | – | – | – | – | – | – | –
COCCOC(=O)C1=C(C)NC(C)=C(C(=O)OC(C)C)C1c1cccc([N+](=O)[O-])c1 (stereo not drawn) [Nimodipine] | 1 | 2.86 | 121.6 | > 1000 µL/min/mg | 3.3 10^−4 cm/s | 22.2 ×10⁻⁶ cm/s | – | 58.8 L/h | 0.33 | 0.94 L/kg | 1.5 mL/min/kg | 0.22 | 0.024 mg/ml | –
COC(=O)C1=C(C)NC(C)=C(C(=O)OCC(C)C)C1c1ccccc1[N+](=O)[O-] (stereo not drawn) [Nisoldipine] | 1 | 4.96 | 110.5 | > 1000 µL/min/mg | 5.2 10^−4 cm/s | 56.7 ×10⁻⁶ cm/s | < 1 % of dose | 50.82 L/h | 0.04 | 4.1 L/kg | 45.8 mL/min/kg | 0.03 | 0.006 mg/ml | f up [10]: 0.009
COc1ccc2[nH]c([S+]([O-])Cc3ncc(C)c(OC)c3C)nc2c1 (stereo not drawn) [Omeprazole] | 1 | 2.23 | 71.0 | < 10 µL/min/mg | – | – | 0 % of dose | 39.48 L/h | 0.32 | – | 39.2 mL/min/kg | 0.09 | 0.035 mg/ml | R b [5]: 0.66; R b [7]: 0.59
CCCc1nn(C)c2c(=O)[nH]c(-c3cc(S(=O)(=O)N4CCN(C)CC4)ccc3OCC)nc12 [Sildenafil] | 1 | 2.45 | 105.2 | 98 µL/min/mg | 3.7 10^−4 cm/s | 28.6 ×10⁻⁶ cm/s | – | 40.08 L/h | 0.41 | – | 38.5 mL/min/kg | 0.06 | 3.5 mg/ml | Base pKa [1]: 6.0
C=CC[C@@H]1/C=C(\C)C[C@H](C)C[C@H](OC)[C@H]2O[C@@](O)(C(=O)C(=O)N3CCCC[C@H]3C(=O)O[C@H](/C(C)=C/[C@@H]3CC[C@@H](O)[C@H](OC)C3)[C@H](C)[C@@H](O)CC1=O)[C@H](C)C[C@@H]2OC [Tacrolimus] | 3 | 3.96 | 185.9 | – | – | – | < 1 % of dose | 78.75 L/h | 0.21 | 1.74 L/kg | 16.5 mL/min/kg | 0.11 | 0.008 mg/ml | Base pKa [1]: 9.3; R b [5]: 1.4; R b [7]: 35
Cc1nnc2n1-c1ccc(Cl)cc1C(c1ccccc1Cl)=NC2 [Triazolam] | 0 | – | 33.3 | – | – | – | 2 % of dose | 12.72 L/h | 0.8 | – | – | 0.16 | 0.005 mg/ml | f up [10]: 0.28; CL ([6]; rat, in vivo, iv): 51.4 mL/min/kg
COc1ccc(C(CN(C)C)C2(O)CCCCC2)cc1 (stereo not drawn) [Venlafaxine] | 1 | 0.76 | 32.8 | < 10 µL/min/mg | 4.0 10^−4 cm/s | 33.2 ×10⁻⁶ cm/s | 4.6 % of dose | 60.35 L/h | 0.37 | – | 64.5 mL/min/kg | 0.13 | – | –
COc1ccc(CCN(C)CCCC(C#N)(c2ccc(OC)c(OC)c2)C(C)C)cc1OC (stereo not drawn) [Verapamil] | 0 | – | 56.3 | – | – | – | – | – | – | – | – | – | – | –
CN(C)CCc1c[nH]c2ccc(C[C@H]3COC(=O)N3)cc12 [Zolmitriptan] | 2 | – | 56.8 | – | – | – | 8 % of dose | 43.06 L/h | 0.7 | – | 29.4 mL/min/kg | 0.41 | 20 mg/ml | –
Cc1ccc(-c2nc3ccc(C)cn3c2CC(=O)N(C)C)cc1 [Zolpidem] | 0 | – | 30.0 | < 10 µL/min/mg | – | – | < 1 % of dose | 18.85 L/h | 0.78 | 0.68 L/kg | 15 mL/min/kg | 0.27 | 23 mg/ml | Acid pKa [1]: 6.3; R b [5]: 0.86; R b [7]: 0.66
